# Experimental data published in ChEMBL document CHEMBL2448811, “Comparison of the accuracy of experimental and predicted pKa values of basic and acidic compounds” (Pharm Res, 2013).
# Assay: physchem
row,pKa,Structure (SMILES)
1,3.6,CCCCCCCC(=O)OC(CC(=O)[O-])C[N+](C)(C)C (stereo not given)
2,3.65,CCCCCCCCCC(=O)OC(CC(=O)[O-])C[N+](C)(C)C (stereo not given)
3,4.87,Nc1ccc(C(=O)O)cc1 [AMINOBENZOIC ACID]
4,3.56,CCCC(=O)OC(CC(=O)[O-])C[N+](C)(C)C (stereo not given) [Butyryl-carnitine]
5,10.3,Cc1ncc(CO)c(CN)c1O [PYRIDOXAMINE]
